According to patent US20220143198A1, “COMPOSITIONS AND METHODS RELATED TO TETHERED KETHOXAL DERIVATIVES” (The University of Chicago, priority 2019, published 2022):

What was measured:
[1] = system: 12-mer synthetic RNA oligo containing four guanine bases; test: Labeling activity of phenol-kethoxal and diphenol-kethoxal on 12-mer synthetic RNA oligo (MALDI-TOF); format: biochemical; conditions: 10 min incubation
Experimental: To test the labeling activity of phenol-kethoxal and diphenol-kethoxal, the two compounds were incubated with a 12-mer synthetic RNA oligo containing four guanine bases, respectively. After 10 min, the reactions were cleaned-up and analyzed by MALDI-TOF.

[2] = system: Cells; test: Cell permeability and radical-mediated biotinylation of RNA from treated cells (dot blot); format: cell-based; conditions: cells treated 10 min, versus control sample
Experimental: A second set of test were performed to test cell permeability of phenol-kethoxal and diphenol-kethoxal and if the labeling enhances radical-mediated biotinylation. Cells were treated with phenol-kethoxal and diphenol-kethoxal for 10 min, respectively, and RNA isolated from treated cells. An in vitro biotinylation reaction was performed by mixing these kethoxal derivative-labeled RNAs with biotin-phenol, horseradish peroxidase (HRP), and H2O2, see FIG. 4. HRP is an enzyme that mimics APEX with higher radical generation activity in vitro. The biotinylated RNAs were purified and subjected to dot blot analysis.

[3] = system: guanosine; test: Reversibility of kethoxal derivatives by adjusting pH (kethoxal-guanosine adduct dissociation); format: physicochemical
[4] = pH = 5.8, 4 h after adjusting from pH 10.1, 1:1 ratio
[5] = pH = 5.8, 24 h after adjusting from pH 10.1, 1:1 ratio
[6] = pH = 10.1, 10 min, kethoxal derivative and guanosine 1:1
[7] = pH = 5.8, 10 min after adjusting from pH 10.1, 1:1 ratio

Row | SMILES | Labeling activity on RNA oligo [1] | Biotin signal of RNA from treated cells after HRP/biotin-phenol/H2O2 biotinylation [2] | Conversion of guanosine [3, 4] | Conversion of guanosine [3, 5] | Conversion of guanosine [3, 6] | Conversion of guanosine [3, 7]
1 | CC(OCCn1cc(-c2ccc(O)c(O)c2)nn1)C(=O)C=O (stereo not drawn) [diphenol-kethoxal] | label the oligo efficiently, with all four guanines on all oligo molecules modified | stronger biotin signals compared with the control sample | – | – | – | –
2 | [N-]=[N+]=NCCCC(=O)C=O [drawing 70] | – | – | 19.0% | 14.7% | 30.2% | –
3 | [N-]=[N+]=NCCOC(F)C(=O)C=O (stereo not drawn) [drawing 74] | – | – | 57.1% | 58.2% | 46.2% | 50.1%
4 | CC(OC(=O)CN=[N+]=[N-])C(=O)C=O (stereo not drawn) [drawing 65] | – | – | 77.3% | 77.2% | 75.5% | –
5 | CC(N=[N+]=[N-])C(=O)C=O (stereo not drawn) [drawing 66] | – | – | 65.2% | 58.7% | 65.9% | 65.6%
6 | CC(C)(OCCN=[N+]=[N-])C(=O)C=O [drawing 63] | – | – | 77.6% | 80.3% | 77.0% | –
7 | CC(OCCn1cc(-c2ccc(O)cc2)nn1)C(=O)C=O (stereo not drawn) [phenol-kethoxal] | label the oligo efficiently, with all four guanines on all oligo molecules modified | stronger biotin signals compared with the control sample | – | – | – | –
8 | [N-]=[N+]=NCCOCC(=O)C=O [drawing 64] | – | – | 75.0% | 76.1% | 74.6% | –
